From patent US20260335293A1, “USE OF NOVEL COMPOUND FOR TREATING INTRACTABLE DISEASES” (YJ CERAPEUTICS INC., priority 2023, published 2026)

Assays:
[1] = tested on: inflammatory factors in Raw 264.7 cell line; assay: Inflammatory factor mRNA in LPS-stimulated Raw 264.7 macrophage cell line, RT-PCR; format: cell-based; conditions: LPS-treated Raw 264.7, RT-PCR
Procedure: (§1) In order to determine whether YJ102 affected the production of proNGF as a ligand of p75, the expression of proNGF in the bladder was confirmed by RT-PCR, Western blot analysis, and immunofluorescence staining. In addition, for further verification, a macrophage cell line Raw 264.7 (Korea Cell Line Bank, Seoul, Korea) was stimulated with 1 μg/ml of LPS, and the effect of YJ102 on the production of proNGF was investigated. At this time, YJ102 was dissolved in DMSO and treated 30 minutes before LPS treatment.
To confirm the effect of YJ102 on the expression of inflammatory factors in the bladder after spinal cord injury, the expression of inflammatory cytokines and chemokines, COX-2, iNOS, IL-6, IL-1β, MIP-1α, MIP-1β, MIP-2a, and Gro-α in bladder tissue was confirmed by RT-PCR analysis and Western blot analysis using the primers in Table 2 above. In addition, even in the Raw 264.7 cell line, the expression was verified by RT-PCR analysis.

[2] = tested on: ED-1-positive macrophages; assay: Introduction of macrophages (ED-1) into bladder of SCI model, immunofluorescence; format: in vivo, Sprague-Dawley rats; conditions: day 7 after SCI
[3] = tested on: NGF / proNGF; assay: NGF mRNA and proNGF in bladder tissue of SCI model, RT-PCR and Western blot; format: in vivo, Sprague-Dawley rats; conditions: bladder tissue after SCI
Procedure: In order to confirm the effect of YJ102 (Chemical Formula 1), a compound of the present disclosure, on urinary disturbances caused by spinal cord injury, immediately after preparing the traumatic spinal cord injury (SCI) model (FIG. 1A) prepared in Example 1 above, YJ102 was dissolved in DMSO, methyl pyrrolidinone, and water (1:1.5:1) and administered intraperitoneally at 5 mg/kg, and then intraperitoneally administered at 24-hour intervals for 7 days from the next day. Thereafter, the effect of improving bladder functions was analyzed through a residual urine volume test and a urinary bladder function score (UBFS). At this time, a Vehicle group was administered with the same amount of a solution of DMSO, methyl pyrrolidinone, and water. Specifically, in order to determine the amount of urine remaining in the bladder after spinal cord injury, bladder extrusion was performed twice a day by applying pressure to the central bottom portion of the lower abdomen using the index and middle fingers to empty the bladder, and the expelled urine was collected in a catheter and its volume was recorded. […]

[4] = tested on: astrocytes (GFAP); assay: Astrocyte activation in spinal cord of SNI model, GFAP immunohistochemistry and Western blot; format: in vivo, Sprague-Dawley rats; conditions: L4-5 spinal cord
[5] = tested on: psoriasis (IMQ psoriasis animal model); assay: Erythema and scaling (PASI) in IMQ psoriasis model; format: in vivo, C57BL/6 mouse
Procedure: Psoriasis caused by excessive production of skin cells was a chronic skin disease associated with various factors, including autoimmune diseases, and its symptoms included red and thickened skin and abnormally occurring scaling. […] Specifically, the back region of a C57BL/6 mouse (male, 18 to 20 g, 8 weeks) (Daehan Biolink, Eumseong, Korea) was shaved to remove hair, and then applied with IMQ cream (83 mg/day) (5%) for consecutive 5 days from Day 0 to Day 4 to induce psoriasis-like skin inflammation, and a normal control mouse (Sham) was applied with Vaseline cream (FIG. 16A).
In order to confirm the effect of YJ102 (Chemical Formula 1), a compound of the present disclosure, on psoriasis, YJ102 dissolved in DMSO, methyl pyrrolidinone, and water (1:1.5:1) was administered intraperitoneally (5 mg/kg) for a total of 3 days on Day 2, Day 3, and Day 4, and the Vehicle group was administered in the same amount of a solution of DMSO, methyl pyrrolidinone, and water (1:1.5:1) (FIG. 16A). To assess daily skin changes, PASI scores were used for erythema and scaling. The PASI score was evaluated as a severity scale of 0 to 4, in which 0 meant none, 1 meant mild, 2 meant moderate, 3 meant severe, and 4 meant very severe. (PASI Reference: Yashpal Manchanda, Abhishek De, Sudip Das, and Disha Chakraborty. Disease Assessment in Psoriasis. Indian J Dermatol. 2023 May-June; 68 (3): 278-281.)

[6] = tested on: inflammatory factors (IL-6, iNOS, COX-2, IL-1β, TNF-α, MIP-1α, MIP-1β, MIP-2α, Gro-α, and MCP-1); assay: Inflammatory factor expression in spinal cord of SNI model, RT-PCR and Western blot; format: in vivo, Sprague-Dawley rats; conditions: ipsilateral L4-5 spinal cord
Procedure: To be used as a peripheral nerve injury animal model, a sciatic nerve injury (SNI) model was prepared (FIG. 1C). Specifically, 200 to 220 g of male adult Sprague-Dawley rats were anesthetized by intraperitoneal injection of chloral hydrate (500 mg/kg), and then three terminal branches (tibial, common peroneal, and sural nerves) of the right sciatic nerve were approached, and the tibia nerve and the peroneal nerve were tightly ligated with 4-0 silk, and neurectomy was performed at a distal 3 mm position of the ligation site. At this time, a Sham group was a group that exposed only the sciatic nerve without damage.
It was known that when neuropathic pain occurred, the activation of microglia and astrocytes expressed inflammatory factors including cytokines and chemokines to cause excessive excitation of surrounding neurons. Therefore, in order to confirm changes in inflammatory factor expression by YJ102 administration in the SNI animal model 4 weeks after nerve injury, RNA and protein were extracted from L4-5 spinal cord tissue and RT-PCR and Western blot analysis were performed. Specifically, for RT-PCR analysis, RNA was isolated from spinal cord tissue sections using a TRIZOL Reagent (Invitrogen) according to a manual, and 20 μl of the total mixture was prepared by using 1 μg of total RNA, and cDNA was synthesized using MMLV reverse transcriptase (Invitrogen). […]

[7] = tested on: proNGF in Raw 264.7 macrophage cell line; assay: proNGF expression in LPS-stimulated Raw 264.7 macrophage cell line; format: cell-based; conditions: LPS 1 μg/ml; YJ102 30 minutes before LPS
Procedure: as §1

[8] = 5 mg/kg i.p. Days 2-4, vs Vehicle

SMILES: CCc1ccc(N(C(=O)COC)c2nc3cc(Cl)ccc3o2)cc1 [YJ102]
- mRNA level of COX-2 [1]: significantly reduced
- mRNA level of IL-1β [1]: significantly reduced
- mRNA level of IL-6 [1]: significantly reduced
- mRNA level of TNF-α [1]: significantly reduced
- mRNA level of iNOS [1]: significantly reduced
- introduction of ED-1-positive macrophages into the bladder [2]: significantly inhibited
- NGF mRNA expression [3]: significantly inhibited
- proNGF production [3]: significantly inhibited
- GFAP expression ([4]; Western blot): significantly decreased
- GFAP expression intensity ([4]; immunohistochemistry): significantly decreased
- symptoms (erythema and scaling) on Day 6 ([5]; 5 mg/kg i.p. Days 2-4, Day 6): appeared to be alleviated
- degree of erythema (PASI) [5, 8]: significantly lower than that of the Vehicle group
- degree of scaling (PASI) [5, 8]: significantly lower than that of the Vehicle group
- expression of inflammatory factors ([6]; RT-PCR): significantly reduced
- expression of inflammatory factors ([6]; Western blot): significantly reduced
- mRNA expression of proNGF [7]: significantly inhibited
- protein expression of proNGF [7]: significantly inhibited
